In US20240175876A1, “PERIPLASMIC LIGAND TRAPPING SYSTEM” (UNIVERSITY OF MIAMI, priority 2022, published 2024):

Target: T1, Angiotensin II Receptor Type I (AGTR1) (Homo sapiens, UniProt P30556)
T1 construct: expressed in transfected cells; host or cells: Saccharomyces cerevisiae strain DI DCyFIR P1 I (humanized Gαi)
T1 sequence (P30556 1-359): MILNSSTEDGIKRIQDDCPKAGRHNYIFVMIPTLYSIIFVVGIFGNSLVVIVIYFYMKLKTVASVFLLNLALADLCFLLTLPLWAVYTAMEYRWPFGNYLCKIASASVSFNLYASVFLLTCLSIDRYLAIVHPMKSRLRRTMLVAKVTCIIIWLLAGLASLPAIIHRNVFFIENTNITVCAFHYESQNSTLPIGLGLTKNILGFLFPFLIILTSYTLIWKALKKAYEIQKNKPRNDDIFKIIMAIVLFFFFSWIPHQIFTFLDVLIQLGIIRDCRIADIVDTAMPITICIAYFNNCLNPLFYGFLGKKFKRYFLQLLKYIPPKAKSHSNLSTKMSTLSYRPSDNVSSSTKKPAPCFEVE
Test: AGTR1 modulation via intracellular nanobodies, galactose-induced AGT-II, mTq2 reporter in yeast
Format: cell-based
Conditions: galactose-induced secreted ligand, Gαi strain; FIG. 5B

Substance: angiotensin II [AGT-II]
- AGTR1 activation by inducible expression of ligand: successfully resulted in AGTR1 activation
